Reference: US20050112573A1, “Method of detecting toxic substance” (priority 2001, published 2005)

Test system: yeast genes (level of expressed mRNA)
Test: DNA chip analysis of expressed mRNA of yeast genes after 2 h culture with a toxic chemical substance
Assay type: cell-based, Saccharomyces cerevisiae S288C
Experimental: Yeast (Saccharomyces cerevtisiae S288C (α SUC2mal mel gap2 CUP1)) were cultured at 25° C. on YPD medium (yeast extract 1%, polypepton 2%, glucose 2%). One of toxic chemical substances was added to the cell at logarithmic growth phase, and the cell was further cultured for two hours. Cell was cultured without any chemical substance in the same condition, and was used as control. Concentrations of the chemical substances were defined to inhibit the growth of the yeast but not lead to death.
After the completion of cultivation, the culture was centrifuged to collect the cells. To the cells, sodium acetate buffer (50 mM sodium acetate, 10 mM EDTA, 1% SDS) was added, and the mixture was shaken at 65° C. for five minutes, followed by returning to room temperature, and obtaining the supernatant, which procedure was repeated two times. To the supernatant, ½ amount of a solution of phenol/chloroform was added, and the mixture was centrifuged to give a supernatant, which was added with an equal amount of chloroform, and the mixture was centrifuged to give a supernatant. To the supernatant, an equal amount of isopropanol containing 0.3 M sodium acetate was added, and the mixture was allowed to stand at room temperature for 30 minutes, after which the mixture was centrifuged to give a sediment of the whole RNAs. Seventy % ethanol was added to the sediment, and the mixture was again centrifuged to give a sediment, which was then dried and dissolved in water. mRNA was isolated from the whole RNAs as followings. In view of the fact that a poly A chain is attached to the 3′ terminus of mRNA, a polynucleotide having a poly T structure which was immobilized on the surface of latex beads was used to trap the mRNA, and then the mRNA was washed and eluted with spine column (Oligotex-dT30<Super>mRNA Purification Kit, Takara). Reverse transcription of the mRNA was conducted with a reverse transcriptase (Super Script II Reverse Transcriptase; catalogue No. 18064-014, GibcoBRL) using fluorescence-labeled nucleotides to give cDNAs that were introduced with Cy3-dUTP or Cy5-dUTP during the reverse transcription.
The labeled cDNAs were dissolved in TE buffer (10 mM Tris-HCl/1 mM EDTA, pH8.0), and the solution was dropped on the DNA chip containing the whole genes of yeast (DNA Chip Research Inc. Japan) so that the cDNAs were hybridized on the DNA chip at 65° C. for over 12 hours. The fluoresces intensity of the DNA chip was read with a scanner, and the ratio relative to the fluorescence intensity resulting from the absence of chemical substance was estimated as the following, which is shown in Tables 1 to 9: [formula]
In the Tables, “Intensity” indicated in the rightmost column is a value of the level of expressed mRNA of each gene in control cells as divided by the average level of the expressions of the whole genes.

CCCCCCCCCCCCOS(=O)(=O)[O-].[Na+] [(18), sodium lauryl sulfate]
3.2: level of expressed mRNA in the presence of chemical substance/in its absence (gene YER026C)
1.5: level of expressed mRNA in the presence of chemical substance/in its absence (gene YGL209W) | level of expressed mRNA in the presence of chemical substance/in its absence (gene YGR282C)
0.7: level of expressed mRNA in the presence of chemical substance/in its absence (gene YGL022W) | The level of expressed mRNA in the presence of chemical substance/absence: YGL088W (gene YGL088W) | The level of expressed mRNA in the presence of chemical substance/absence: YGR210C (gene YGR210C)
0.9: The level of expressed mRNA in the presence of chemical substance/absence: YDR133C (gene YDR133C) | The level of expressed mRNA in the presence of chemical substance/absence: YDR250C (gene YDR250C) | The level of expressed mRNA in the presence of chemical substance/absence: YDR271C (gene YDR271C) | The level of expressed mRNA in the presence of chemical substance/absence: YDR366C (gene YDR366C) | level of expressed mRNA in the presence of chemical substance/in its absence (gene YDR502C) | level of expressed mRNA in the presence of chemical substance/in its absence (gene YER069W) | level of expressed mRNA in the presence of chemical substance/in its absence (gene YGL126W)
0.8: The level of expressed mRNA in the presence of chemical substance/absence: YDR278C (gene YDR278C) | level of expressed mRNA in the presence of chemical substance/in its absence (gene YDR380W) | The level of expressed mRNA in the presence of chemical substance/absence: YDR421W (gene YDR421W) | The level of expressed mRNA in the presence of chemical substance/absence: YFR056C (gene YFR056C) | level of expressed mRNA in the presence of chemical substance/in its absence (gene YGL253W) | The level of expressed mRNA in the presence of chemical substance/absence: YGR139W (gene YGR139W) | The level of expressed mRNA in the presence of chemical substance/absence: YGR156W (gene YGR156W)
1.3: The level of expressed mRNA in the presence of chemical substance/absence: YDR140W (gene YDR140W) | level of expressed mRNA in the presence of chemical substance/in its absence (gene YEL020C) | level of expressed mRNA in the presence of chemical substance/in its absence (gene YGL104C) | level of expressed mRNA in the presence of chemical substance/in its absence (gene YGL134W)
2.1: level of expressed mRNA in the presence of chemical substance/in its absence (gene YGL001C) | The level of expressed mRNA in the presence of chemical substance/absence: YGR250C (gene YGR250C)
4.4: The level of expressed mRNA in the presence of chemical substance/absence: YGR243W (gene YGR243W)
2.5: level of expressed mRNA in the presence of chemical substance/in its absence (gene YEL011W)
1.1: The level of expressed mRNA in the presence of chemical substance/absence: YFR026C (gene YFR026C) | The level of expressed mRNA in the presence of chemical substance/absence: YGL041C (gene YGL041C) | The level of expressed mRNA in the presence of chemical substance/absence: YGL057C (gene YGL057C) | level of expressed mRNA in the presence of chemical substance/in its absence (gene YGL154C) | The level of expressed mRNA in the presence of chemical substance/absence: YGR038W (gene YGR038W) | The level of expressed mRNA in the presence of chemical substance/absence: YGR277C (gene YGR277C)
1.0: The level of expressed mRNA in the presence of chemical substance/absence: YDR221W (gene YDR221W) | The level of expressed mRNA in the presence of chemical substance/absence: YDR338C (gene YDR338C) | level of expressed mRNA in the presence of chemical substance/in its absence (gene YDR410C) | The level of expressed mRNA in the presence of chemical substance/absence: YDR485C (gene YDR485C) | The level of expressed mRNA in the presence of chemical substance/absence: YEL044W (gene YEL044W) | level of expressed mRNA in the presence of chemical substance/in its absence (gene YGL039W) | The level of expressed mRNA in the presence of chemical substance/absence: YGL183C (gene YGL183C) | The level of expressed mRNA in the presence of chemical substance/absence: YGL223C (gene YGL223C) | The level of expressed mRNA in the presence of chemical substance/absence: YGR198W (gene YGR198W) | The level of expressed mRNA in the presence of chemical substance/absence: YGR237C (gene YGR237C) | The level of expressed mRNA in the presence of chemical substance/absence: YGR266W (gene YGR266W)
0.5: The level of expressed mRNA in the presence of chemical substance/absence: YDR316W (gene YDR316W) | The level of expressed mRNA in the presence of chemical substance/absence: YGR211W (gene YGR211W)
1.7: The level of expressed mRNA in the presence of chemical substance/absence: YER092W (gene YER092W)
1.6: level of expressed mRNA in the presence of chemical substance/in its absence (gene YGR060W)
1.2: The level of expressed mRNA in the presence of chemical substance/absence: YDR281C (gene YDR281C) | The level of expressed mRNA in the presence of chemical substance/absence: YDR425W (gene YDR425W) | The level of expressed mRNA in the presence of chemical substance/absence: YDR504C (gene YDR504C) | The level of expressed mRNA in the presence of chemical substance/absence: YER182W (gene YER182W) | The level of expressed mRNA in the presence of chemical substance/absence: YFL042C (gene YFL042C) | level of expressed mRNA in the presence of chemical substance/in its absence (gene YFR015C) | The level of expressed mRNA in the presence of chemical substance/absence: YGL045W (gene YGL045W)
1.9: level of expressed mRNA in the presence of chemical substance/in its absence (gene YDR487C)
